Data from patent US4520022A, “Substituted vinyl cephalosporins” (priority 1983, dated 1985).
Read-outs that look alike come from different tables or passages of the source.

What was measured:
S. aureus BX-1633 = test: Protective dose PD50, mice infected with lethal inoculum, oral treatment, S. aureus BX-1633; format: in vivo; details: Staphylococcus aureus, BX1633, 120 h
S. pyogenes A20201 = test: Protective dose PD50, mice infected with lethal inoculum, oral treatment, S. pyogenes A20201; format: in vivo; details: Streptococcus pyogenes, 120 h
H. influenza A9729 = test: Protective dose PD50, mice infected with lethal inoculum, oral treatment, H. influenza A9729; format: in vivo; details: Mus musculus, 120 h
Description: The structure activity correlations drawn from the foregoing in vitro studies are born out by the results of in vivo studies in mice. Table 4 is a tabulation of the protective doses for mice infected with a lethal inoculum of a bacteria. Two different bacteria were employed in the studies, one a Gram+ organism and the other a Gram- organism. The protective dose (PD50) is that dose which when administered to a group of infected mice results in 50% survival after five days. Normally untreated infected mice die within three days following injection of the lethal inoculum.
Protective Dose PD50 for Mice Infected with Lethal Inoculum

P. mirabilis A9554 = test: Protective dose PD50, mice infected with lethal inoculum, oral treatment, P. mirabilis A9554; format: in vivo
S. pyogenes = test: In vitro activity against Streptococci (MIC), S. pyogenes; format: cell-based
S. pneumoniae = test: In vitro activity against Streptococci (MIC), S. pneumoniae; format: cell-based; details: Streptococcus pneumoniae
N. gonorrheae = test: In vitro activity against Neisseria (MIC), N. gonorrheae; format: cell-based
N. meningitidis = test: In vitro activity against Neisseria (MIC), N. meningitidis; format: cell-based
H. influenzae = test: In vitro activity against Haemophilis (MIC), H. influenzae; format: cell-based; details: Haemophilus influenzae, Compound 9 lot 2
B. fragilis = test: In vitro activity against anaerobes (MIC), B. fragilis; format: cell-based; details: Bacteroides fragilis
C. difficile A21675 = test: In vitro activity against anaerobes (MIC), C. difficile; format: cell-based; details: Clostridioides difficile, A21675
P. acnes A21933 = test: In vitro activity against anaerobes (MIC), P. acnes; format: cell-based; details: Cutibacterium acnes, A21933
P. anaerobius A21905 = test: In vitro activity against anaerobes (MIC), P. anaerobius; format: cell-based; details: Peptostreptococcus anaerobius, A21905

N[C@@H](C(=O)N[C@@H]1C(=O)N2C(C(=O)O)=C(Cl)CS[C@H]12)c1ccccc1 [Cefaclor]
0.4 µg/mL: MIC (H. influenzae; H. influenzae A22482) | MIC (H. influenzae; H. influenzae A22483) | MIC (P. anaerobius A21905)
2.2 mg/kg: ED50 (S. aureus BX-1633)
1.8: Protective Dose PD50 (P. mirabilis A9554)
1.6 mg/kg: ED50 (H. influenza A9729)
> 100 µg/mL: MIC (B. fragilis; B. fragilis A22021, β-lactamase (+)) | MIC (B. fragilis; B. fragilis A22533, β-lactamase (+)) | MIC (B. fragilis; B. fragilis A22693, β-lactamase (+)) | MIC (B. fragilis; read-out: MIC, Geometric Mean, B. fragilis A22053, A22021, A22693, β-lactamase (+)) | MIC (B. fragilis; read-out: MIC, Geometric Mean, B. fragilis A22695, A22533, β-lactamase (+))
0.66 µg/mL: MIC (H. influenzae; read-out: MIC, Geometric Mean, H. influenzae, seven strains above)
25 µg/mL: MIC (C. difficile A21675)
1.3 µg/mL: MIC (S. pneumoniae; read-out: MIC, Geometric Mean)
3.1 µg/mL: MIC (B. fragilis; B. fragilis A20928-1, β-lactamase (-)) | MIC (B. fragilis; B. fragilis A20935, β-lactamase (-))
0.8 µg/mL: MIC (S. pneumoniae) | MIC (N. gonorrheae) | MIC (N. gonorrheae; N. gonorrheae A20143, Compound 9 lot 2) | MIC (N. gonorrheae; N. gonorrheae A20154, Compound 9 lot 2) | MIC (N. gonorrheae; N. gonorrheae A20155, Compound 9 lot 2) | MIC (N. gonorrheae; read-out: MIC, Geometric Mean) | MIC (N. meningitidis; N. meningitidis A20049) | MIC (N. meningitidis; N. meningitidis A21487, Compound 9 lot 2) | MIC (N. meningitidis; N. meningitidis A21496, Compound 9 lot 2) | MIC (N. meningitidis; N. meningitidis A21497, Compound 9 lot 2) | MIC (N. meningitidis; Neisseria meningitidis) | MIC (N. meningitidis; Neisseria meningitidis, read-out: MIC, Geometric Mean) | MIC (H. influenzae; H. influenzae A9729) | MIC (H. influenzae; H. influenzae A9833) | MIC (H. influenzae; H. influenzae A20177) | MIC (H. influenzae; H. influenzae A20193) | MIC (H. influenzae; H. influenzae A21523) | MIC (P. acnes A21933)
100 µg/mL: MIC (B. fragilis; B. fragilis A22053, β-lactamase (+)) | MIC (B. fragilis; B. fragilis A22695, β-lactamase (+))
0.2 µg/mL: MIC (S. pyogenes; S. pyogenes A9604, Compound 9 lot 2) | MIC (S. pyogenes; S. pyogenes A15040, Compound 9 lot 2) | MIC (S. pyogenes; S. pyogenes A20065, Compound 9 lot 2) | MIC (S. pyogenes; S. pyogenes Dick, Compound 9 lot 2) | MIC (S. pyogenes; Streptococcus pyogenes) | MIC (S. pyogenes; Streptococcus pyogenes, read-out: MIC, Geometric Mean)
0.14 mg/kg: ED50 (S. pyogenes A20201)
3.9 µg/mL: MIC (B. fragilis; read-out: MIC, Geometric Mean, B. fragilis A20928-1, A21900, A20935, β-lactamase (-))
